According to publication PMC8305076, “Comprehensive Evaluation of Biological Effects of Pentathiepins on Various Human Cancer Cell Lines and Insights into Their Mode of Action” (International Journal of Molecular Sciences, 2021):

Tests used:
[1] = system: HAP-1, HAP-1.KO.GPx1, A2780 and Siso; parameters: method as in PMID 32311219; key: no impact (0); weak impact (+); strong impact (++); conditions: summary grade; first generation compound; cited from earlier work
[2] = system: panel of 14 human cancer cell lines; parameters: method as in PMID 32311219; key: no impact (0); weak impact (+); strong impact (++); conditions: summary grade; first generation compound; cited from earlier work
[3] = target: T1, bovine erythrocyte GPx1 (Bos taurus, UniProt P00435); parameters: method as in PMID 32311219; key to GPx1 inhibition: no impact (0); weak impact (+); strong impact (++); conditions: cited from earlier work
T1 construct: the isolated enzyme from bovine erythrocytes; purchased Sigma-Aldrich (Taufkirchen, Germany); host or cells: isolated from bovine erythrocytes
T1 sequence (P00435 1-205): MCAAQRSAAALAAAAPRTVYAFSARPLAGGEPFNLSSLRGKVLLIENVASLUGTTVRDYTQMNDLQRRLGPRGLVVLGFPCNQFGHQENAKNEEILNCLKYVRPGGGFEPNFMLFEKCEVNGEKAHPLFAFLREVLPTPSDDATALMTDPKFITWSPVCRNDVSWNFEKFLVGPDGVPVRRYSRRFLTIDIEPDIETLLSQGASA

[4] = system: GR/CAT; parameters: method as in PMID 32311219; key: no impact (0); weak impact (+); strong impact (++); conditions: summary grade; first generation compound; cited from earlier work
[5] = system: HAP-1, HAP-1.KO.GPx1, and Siso; parameters: method as in PMID 32311219; key: no impact (0); weak impact (+); strong impact (++); conditions: summary grade; first generation compound; cited from earlier work
[6] = system: pBR322 plasmid DNA; parameters: method as in PMID 32311219; key: no impact (0); weak impact (+); strong impact (++); conditions: summary grade; first generation compound; cited from earlier work
[7] = system: panel of 14 human cancer cell lines; parameters: method as in PMID 32311219; key: no impact (0); weak impact (+); strong impact (++); conditions: summary grade; first generation compound; cited from earlier work; remark: listed apart in the source
[8] = system: HAP-1, HAP-1.KO.GPx1, Siso and A2780 cells; parameters: method as in PMID 32311219; key: no impact (0); weak impact (+); strong impact (++); conditions: summary grade; first generation compound; cited from earlier work
[9] = system: HAP-1, HAP-1.KO.GPx1, A2780, and Siso; parameters: method as in PMID 32311219; key: no impact (0); weak impact (+); strong impact (++); conditions: summary grade; first generation compound; cited from earlier work
[10] = system: seven cancer cell lines; parameters: method as in PMID 32311219; key: no impact (0); weak impact (+); strong impact (++); conditions: summary grade; first generation compound; cited from earlier work
[11] = system: HAP-1; experiment: alkaline Comet assay; format: cell-based, human; conditions: 25 µM pentathiepin or 20 µM H2O2, 15 min, 0 °C
Text: (§1) Next, the potential of the pentathiepins 1–6 to damage nuclear DNA was investigated in the cell lines HAP-1, HAP-1.KO.GPx1, and Siso, with different expression levels of GPx1 and CAT (see Figure 7), by Comet Assay (Figure 12) with representative images in the Supplementary Materials (Figure S48).
(§2) With this assay, the intensity of DNA damage can be assessed on the level of a single cell, in case of the alkaline version detecting both single and double strand breaks as well as alkali-labile sites. The method presented here is an adaptation of the protocol published by Olive and Banath and based on the distinct electrophoretic mobility of damaged and intact genomic DNA. The latter has a low mobility; does thus not migrate in the electric field; and remains in a nucleoid shape after lysis, referred to as the comet head. In contrast, when strand breaks are created, free charged ends emerge and increase the electrophoretic mobility, prompting DNA segments to drift away from the comet head, thereby forming the so-called comet tail. As descriptor of still intact genomic DNA, the percentage of DNA in the comet head was selected. Per condition, 50,000 cells of either Siso, HAP-1, or HAP-1.KO.GPx1 were diluted in 1 mL of PBS and subsequently treated with either a 1% DMF aqueous solution as negative control, 20 µM of H2O2 as positive control, or 25 µM of pentathiepin for 15 min on ice to impair intracellular DNA repair mechanisms. Afterwards, 400 µL of the cell suspension was blended with 1.2 mL of a 1% low melting point agarose solution (40 °C) and smoothly distributed on agarose-precoated glass slides. Polymerization was finished after 3 min at RT, and the slides were horizontally submerged in alkaline lysis buffer (1.2 M NaCl, 0.1% N-lauryl-sarcosinate, 0.1 M Na-EDTA, 0.26 M NaOH) before storing them at 4 °C overnight. The slides were then rinsed three times in rinse/electrophoresis buffer (0.002 M Na-EDTA, 0.03 M NaOH) before electrophoretic separation was performed for 25 min at 0.6 V/cm. A neutralization step by adding distilled water was followed by staining the slides with 250 µL of an aqueous 10 µg/mL PI solution for 20 min. For visualization and image capturing, a DMi8 fluorescent microscope and LASX software (Leica Microsystems, Wetzlar, Germany) were used, and the comets scored with the help of CometScore2.0 (rexhoover.com). Per condition and replicate, at least 100 comets were analyzed to calculate a mean level of damage.

[12] = system: Siso; experiment: alkaline Comet assay; format: cell-based, human; conditions: 25 µM pentathiepin or 20 µM H2O2, 15 min, 0 °C
Text: as §1, §2

[13] = system: HAP-1.KO.GPx1; experiment: alkaline Comet assay; format: cell-based, human; conditions: 25 µM pentathiepin or 20 µM H2O2, 15 min, 0 °C
Text: as §1, §2

[14] = system: PARP1 in HAP-1; experiment: Western blot of cleaved PARP1; format: cell-based, human; conditions: pentathiepins IC90, doxorubicin 0.5 µM, 24 h
Experimental: (§3) In addition to general flow cytometric and microscopic analyses, Western blotting was performed to detect the apoptosis-relevant protein PARP1 (poly(ADP-ribose) polymerase 1) and its cleavage fragment (Figure 17 and Figures S29–S34). Full-length PARP1 (116 kDa) is involved in DNA repair, and a cleavage by caspases (fragment sizes 24 and 89 kDa) caused by caspase-3 and -7 is a hallmark of late apoptosis.
(§4) All detected specific bands were normalized to the total protein load per lane by the TGX stain-free gel system from Bio-Rad.
(§5) All Western blot analyses were performed with reagents, material, and devices purchased from Bio-Rad (Feldkirchen, Germany) if not stated otherwise. To obtain protein lysates, we seeded cells and treated them as described for the other methods. […] Cells were harvested by trypsinization and centrifugation for 5 min at 500× g. After a washing step with PBS, the cell pellet was resuspended in lysis buffer (Tris 50 mM (pH 7.4), 100 mM NaCl, 100 mM NaF, 5 mM EDTA, 0.2 mM Na3VO4, 0.1% Triton-X, and 1% protease inhibitor cocktail added immediately before use). Lysis was supported by incubating the samples for 10 min in an ultrasonic bath before centrifuging for 10 min at 18,000 × g and 4 °C. Protein quantification was performed via the Bradford method using ROTI®nanoquant reagent (Carl Roth GmbH, Karlsruhe, Germany) and bovine serum albumin as calibration standard. For electrophoretic separation, 15–40 µg of protein was loaded per well of a polyacrylamide gel (Mini- or Midi-Protean® TGX stain-free gel, Bio-Rad, Feldkirchen, Germany), and subsequent blotting was performed with Trans-Blot®Turbo™TransferPack Mini or Midi PVDF membranes from Bio-Rad (Feldkirchen, Germany). The membranes were blocked with a 10% non-fat milk powder solution in Tris-buffered saline (TBS; 2.42 g/L Tris, 8.48 g/L NaCl in water) plus 0.5% Tween-20 (TBST) for 1 h at RT. Incubation with primary antibodies took place over night at 4 °C in a 1:1000 dilution in TBST containing BSA (1%). The secondary antibodies conjugated to horse-radish peroxidase were diluted 1:10,000 in TBST and 1% BSA, and incubated for 4 h at RT. A detection step followed, applying Clarity™Western ECL substrate with subsequent imaging via the INTAS Advanced Fluorescence Imager. Between all incubation steps, the blots were washed three times for 10 min with TBST. The bands were quantified with the ImageLab software and normalized using the total protein quantification of the TGX stain-free gel system from Bio-Rad.

[15] = system: PARP1 in HAP-1.KO.GPx1; experiment: Western blot of cleaved PARP1; format: cell-based, human; conditions: pentathiepins IC90, doxorubicin 0.5 µM, 24 h
Experimental: as §3, §4, §5

[16] = system: caspase-3 and -7 in A2780; experiment: luminescent caspase activity assay; format: cell-based, human; conditions: pentathiepins IC90, doxorubicin 0.5 µM, 24 h
Text: (§6) To further corroborate this mode of cell death, we performed a luminescent caspase assay by measuring caspase-3 (cas-3) and caspase-7 (cas-7) activities (Figure 16). Both are executioner caspases that are present as zymogens (35 kDa) and become active after being cleaved (fragment sizes 17 and 19 kDa) by initiator caspases. Activated cas-3 and -7 in turn have several other substrates, including PARP1. In this assay, a precursor with a caspase-specific target sequence was converted into its luminescent form by active caspase-3 or -7, thereby emitting light that can be quantified.
(§7) To study the activation of the effector caspases -3 and -7, we performed a luminescence-based assay according to the manufacturer’s instructions (Caspase-Glo, Promega, Walldorf, Germany). Briefly, 5000 cells were seeded in 0.1 mL per well of a 96-well plate and allowed to adhere overnight. […] Afterwards, the standard protocol was followed, including a 30 min incubation time before measurement of luminescent signals by using the Spectramax i3x (Molecular Devices, Sunnyvale, CA, USA). After subtraction of the background luminescence the positive control and treatment conditions were related to the negative control.

[17] = system: caspase-3 and -7 in HAP-1.KO.GPx1; experiment: luminescent caspase activity assay; format: cell-based, human; conditions: pentathiepins IC90, doxorubicin 0.5 µM, 24 h
Text: as §6, §7

[18] = system: caspase-3 and -7 in HAP-1; experiment: luminescent caspase activity assay; format: cell-based, human; conditions: pentathiepins IC90, doxorubicin 0.5 µM, 24 h
Text: as §6, §7

[19] = system: caspase-3 and -7 in Siso; experiment: luminescent caspase activity assay; format: cell-based, human; conditions: pentathiepins IC90, doxorubicin 0.5 µM, 24 h
Text: as §6, §7

[20] = system: HAP-1.KO.GPx1; experiment: annexin V-FITC/PI apoptosis assay; format: cell-based, human; conditions: pentathiepins IC90, doxorubicin 0.5 µM, 24 h
Experimental: As reported in our earlier publication, a representative pentathiepin was capable of inducing apoptosis in cancer cell lines. Here, we tested compounds 1–6 for their ability to trigger this particular modality of cell death in a subset of four cell lines: HAP-1, HAP-1.KO.GPx1, A2780, and Siso. A flow cytometric assay was performed, allowing us to discriminate between viable, early, and late apoptotic cells (representative dot plots can be found in Figure S47). FITC-labeled annexin V was used to assess the externalization of phosphatidyl serine as a hallmark of early apoptosis induction. The addition of propidium iodide (PI) enabled the detection of late apoptotic cells as it only permeates porous cell membranes and exerts fluorescence once bound to double-stranded DNA.
The annexin V-FITC/PI assay, which discriminates between viable, early, and late apoptotic cells within a sample population, was performed according to the manufacturer’s instructions (Miltenyi Biotec, Teterow, Germany). Briefly, 125,000 cells were seeded in 2 mL per well of a 6-well plate, allowed to adhere overnight, and subsequently treated with the respective pentathiepin (IC90, see Table S4) diluted in 3 mL of medium. After incubation periods of 6, 24, or 48 h, the cells were harvested, washed with the provided binding buffer, and stained with the annexin V-FITC reagent for 20 min at room temperature (RT) in the dark. After another washing step, the pellet was resuspended, and PI was added immediately before flow cytometric measurement at λEx/Em = 488/525 ± 50 nm for FITC and λEx/Em = 488/655–730 nm for PI with the MACSquant Analyzer 10 (Miltenyi Biotec, Teterow, Germany).

**Q.** Which results are given for `CCOc1c2c(c3cnc4cc(C)c(C)cc4n13)SSSSS2` [(c)]?
**A.** Ferroptosis [1]: 0; Antiproliferative effect [2]: +; GPx1 inhibition ([3]; summary grade, first generation compound): +; GR/CAT inhibition [4]: 0; Comet formation [5]: +; DNA cleavage [6]: +; Cytotoxicity [7]: +; Morphological changes [8]: +; Apoptosis [9]: +; ROS induction [10]: +

**Q.** What does the source list for `OO` [Compound H2O2, hydrogen peroxide]?
**A.** intact genomic DNA (Comet head) [11]: 63%; intact genomic DNA (Comet head) [12]: about 10%; intact genomic DNA (Comet head) [13]: 5%

**Q.** With `COc1cccc2c1C(=O)c1c(O)c3c(c(O)c1C2=O)C[C@@](O)(C(=O)CO)C[C@@H]3O[C@H]1C[C@H](N)[C@H](O)[C@H](C)O1` [doxorubicin, reference compound] as the compound, how does the “cleaved PARP1” value [14] read?
**A.** detected to statistically significant extents

**Q.** What about the “cleaved PARP1” value [15] of the same compound?
**A.** detected to statistically significant extents

**Q.** And the “caspase-3 and -7 activity vs solvent control” value [16]?
**A.** activation of the caspase-3 and -7 was confirmed

**Q.** What about the “caspase-3 and -7 activity vs solvent control” value [17] of the same compound?
**A.** activation of the caspase-3 and -7 was confirmed

**Q.** And the “caspase-3 and -7 activity vs solvent control” value [18]?
**A.** activation of the caspase-3 and -7 was confirmed

**Q.** And the “caspase-3 and -7 activity vs solvent control” value [19]?
**A.** activation of the caspase-3 and -7 was confirmed

**Q.** What about the early apoptotic cells [20] of the same compound?
**A.** about 50%

**Q.** Which IC50 ([3]; GPx1 inhibition) does the source give for `O=C(O)CC(S)C(=O)O` (stereo not drawn) [mercaptosuccinic acid] here?
**A.** 5.9 µM
